Measured values from ChEMBL document CHEMBL1201862, “PubChem BioAssay data set” (2004).
The source made the active and inactive calls.

Assays:
[1] = target: Nonstructural protein 1 (Influenza A virus, UniProt Q194T2); type: functional, Influenza A virus (A/California/07/2009(H1N1))
[2] = target: Matrix metalloproteinase-14 (Homo sapiens, UniProt P50281); test: Dose Response confirmation of uHTS hits for a small molecule inhibitors of MT1-MMP activation in a fluorescence assay set 1.; type: functional
[3] = target: T1, Bcl-2-like protein 10 (Homo sapiens, UniProt Q9HD36); test: Bcl-B/TR3 peptide binding disruption – biochemical, fluorescence polarization, FITC-TR3 peptide, selectivity assay for Bfl-1 inhibitor project, primary screen (AID 748);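 also: fluorescence polarization from a fluorescein-labelled TR3 peptide binding purified Bcl-B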
T1 sequence (Q9HD36 whole entry): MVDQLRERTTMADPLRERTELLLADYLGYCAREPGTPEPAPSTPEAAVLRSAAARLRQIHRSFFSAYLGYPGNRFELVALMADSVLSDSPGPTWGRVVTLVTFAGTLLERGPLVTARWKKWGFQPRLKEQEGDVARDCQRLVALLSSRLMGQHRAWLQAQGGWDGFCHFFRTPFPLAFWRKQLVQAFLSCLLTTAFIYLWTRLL

[4] = target: T2, Caspase-3 (Homo sapiens, UniProt P42574); type: functional;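 also: Dose-response selectivity test against caspase-3 for candidate inhibitors of sentrin-specific proteases (SENPs)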
T2 sequence (P42574 whole entry): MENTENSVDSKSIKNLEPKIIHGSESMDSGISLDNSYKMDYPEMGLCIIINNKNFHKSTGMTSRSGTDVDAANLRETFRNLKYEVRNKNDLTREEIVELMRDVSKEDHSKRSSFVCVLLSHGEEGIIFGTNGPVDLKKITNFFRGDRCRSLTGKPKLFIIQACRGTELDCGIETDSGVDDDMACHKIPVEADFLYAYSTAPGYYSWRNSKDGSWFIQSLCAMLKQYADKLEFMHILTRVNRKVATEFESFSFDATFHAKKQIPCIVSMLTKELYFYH

[5] = target: T3, Sentrin-specific protease 6 (Homo sapiens, UniProt Q9GZR1); type: functional;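 also: Luminescence-based dose-response confirmatory assay of SENP6 inhibition, following up an ultra-high-throughput screen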
T3 sequence (Q9GZR1 whole entry): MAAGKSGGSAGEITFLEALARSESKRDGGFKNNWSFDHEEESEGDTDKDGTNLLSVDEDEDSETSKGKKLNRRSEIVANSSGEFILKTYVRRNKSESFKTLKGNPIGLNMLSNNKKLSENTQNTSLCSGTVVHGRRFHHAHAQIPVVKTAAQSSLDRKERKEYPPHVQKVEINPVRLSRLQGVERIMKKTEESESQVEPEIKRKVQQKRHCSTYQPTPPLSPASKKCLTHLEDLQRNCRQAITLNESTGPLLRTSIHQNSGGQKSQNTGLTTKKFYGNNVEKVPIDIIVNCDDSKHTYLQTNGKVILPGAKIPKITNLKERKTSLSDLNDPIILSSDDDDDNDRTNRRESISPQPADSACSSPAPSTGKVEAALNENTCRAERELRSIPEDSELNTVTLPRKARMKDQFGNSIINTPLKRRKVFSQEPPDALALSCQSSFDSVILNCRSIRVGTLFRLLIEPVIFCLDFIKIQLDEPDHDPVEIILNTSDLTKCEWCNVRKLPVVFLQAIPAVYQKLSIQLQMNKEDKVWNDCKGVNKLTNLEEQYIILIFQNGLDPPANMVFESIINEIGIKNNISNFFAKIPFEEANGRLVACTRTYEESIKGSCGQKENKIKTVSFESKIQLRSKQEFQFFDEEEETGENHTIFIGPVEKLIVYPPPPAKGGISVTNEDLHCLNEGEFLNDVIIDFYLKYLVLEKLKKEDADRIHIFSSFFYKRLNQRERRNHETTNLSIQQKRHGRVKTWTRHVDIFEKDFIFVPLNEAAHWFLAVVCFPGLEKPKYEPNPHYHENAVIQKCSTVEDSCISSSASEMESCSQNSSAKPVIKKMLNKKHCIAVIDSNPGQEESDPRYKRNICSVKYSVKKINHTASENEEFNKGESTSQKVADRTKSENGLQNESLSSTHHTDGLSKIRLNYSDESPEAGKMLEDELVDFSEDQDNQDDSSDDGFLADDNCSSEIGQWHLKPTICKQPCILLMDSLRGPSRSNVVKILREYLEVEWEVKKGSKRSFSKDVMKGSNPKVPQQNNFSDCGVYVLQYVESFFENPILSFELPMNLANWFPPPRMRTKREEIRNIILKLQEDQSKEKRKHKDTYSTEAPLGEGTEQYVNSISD

Sequence of Nonstructural protein 1 (Q194T2 whole entry): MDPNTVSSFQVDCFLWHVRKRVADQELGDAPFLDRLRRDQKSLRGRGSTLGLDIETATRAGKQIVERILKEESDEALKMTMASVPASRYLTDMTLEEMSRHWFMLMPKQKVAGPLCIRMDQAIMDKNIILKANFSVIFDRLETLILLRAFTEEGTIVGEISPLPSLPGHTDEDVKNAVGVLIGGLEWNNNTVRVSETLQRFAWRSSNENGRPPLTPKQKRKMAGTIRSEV

Row | SMILES | IC50 [1] | IC50 [2] | IC50 [3] | IC50 [4] | IC50 [5]
1 | CC1CC(C)CN(C(=O)c2ccc3c(c2NCCO)C(=O)c2ccccc2C3=O)C1 (stereo not given) | 13 µM (active) | 69 µM (inactive) | 29.1 µM (active) |  | 
2 | CCC(=O)N(C1=C(NC)C(=O)c2ccccc2C1=O)C(C)C |  |  |  | 6.86 µM (active) | 16.7 µM (active)
